Data published in patent US9615577B2, “Herbicidally active cyclic dione compounds, or derivatives therefor, substituted by a phenyl which has an alkynyl-containing substituent” (Syngenta Limited, priority 2012, dated 2017).

Key:
Type in all cases: in vivo
Setaria faberi (SETFA) [1] = assay: Test 1A glasshouse assay for herbicidal activity, post-emergence; settings: 312 h, evaluated after 13 days, read-out: percentage phytotoxicity SETFA
Summary of the method: (§1)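 Damage is rated by eye as percent phytotoxicity on a 0–100 scale, 13 days after treatment. Compound is sprayed in acetone/water (50:50) with 0.5% Tween 20 onto pots one day (pre-emergence) or eight days (post-emergence) after sowing, with plants kept at 24/16 °C and 14 h light.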

[2] = test system: Alopecurus myosuroides (ALOMY); assay: as above; settings: 312 h, evaluated after 13 days, read-out: percentage phytotoxicity ALOMY
Summary of the method: as §1

[3] = test system: Echinochloa crus-galli (ECHCG); assay: as above; settings: 312 h, evaluated after 13 days, read-out: percentage phytotoxicity ECHCG
Summary of the method: as §1

[4] = test system: Amaranthus retroflexus (AMARE); assay: as above; settings: 312 h, evaluated after 13 days, read-out: percentage phytotoxicity AMARE
Summary of the method: as §1

Setaria faberi (SETFA) [5] = assay: Test 1B glasshouse assay for herbicidal activity, pre-emergence; settings: 480 h, 250 g/ha, 20 DAA, read-out: percentage phytotoxicity SETFA
Experimental: (§2) Seeds of a variety of monocotyledonous and dicotyledonous test plants are sown in standard soil in pots. The plants are cultivated for one day (for pre-emergence) or for about 12 days (range=10-13 days) (for post-emergence) under controlled conditions in a glasshouse (warm climate species at 24/18° C., cool climate species at 20/16° C., both at day/night; 16 hours light; 65% humidity).
(§3) An “instant formulation”, known as the “IF50”, containing 50 g/liter (i.e. 5% w/v) of the “technical” (i.e. unformulated) active ingredient is prepared by dissolving the active ingredient in a mixture of organic solvents and emulsifier, details of which are provided in the Table below. This IF50 is then mixed with a small, variable amount of acetone to aid dissolution, before addition of a 0.2% v/v aqueous solution of the adjuvant X-77 (which is a mixture of alkyl aryl polyoxyethylene glycols and free fatty acids in isopropanol, CAS Registry number 11097-66-8), as the aqueous diluent, to form an aqueous spray solution which contains a predetermined concentration of the active ingredient (which varies depending on the application rate of the active ingredient to the plants) and 0.2% v/v of the adjuvant X-77. This aqueous spray solution is then sprayed onto the plants, after one day's cultivation (for pre-emergence) or after about 12 days' cultivation (for post-emergence).
(§4) The test plants are then grown on, in a glasshouse (greenhouse) under controlled conditions (at either 24/18° C. or 20/16° C. (day/night) as mentioned above; 16 hours light; 65% humidity) and are watered twice daily. Either 15 days after application of the herbicide (15 DAA) (for post-emergence), or 20 days after application of the herbicide (20 DAA) (for pre-emergence), the test plants are evaluated visually, and an assessed percentage phytotoxicity score is given for each herbicidal application on each plant species (where 100%=total damage to plant; 0%=no damage to plant).
(§5) Warm climate (“warm season”) grassy monocotyledonous weeds: Setaria faberi (SETFA), SORVU (Sorghum bicolor (L.) Moench ssp. Bicolor, or Sorghum vulgare Pers.), Digitaria sanguinalis (DIGSA), Echinochloa crus-galli (ECHCG), and Brachiaria plantaginea (BRAPL).

[6] = test system: Echinochloa crus-galli (ECHCG); assay: as above; settings: 480 h, 250 g/ha, 20 DAA, read-out: percentage phytotoxicity ECHCG
Experimental: as §2, §3, §4, §5

[7] = test system: SORVU (Sorghum bicolor (L.) Moench ssp. Bicolor, or Sorghum vulgare Pers.); assay: as above; settings: 480 h, 250 g/ha, 20 DAA, read-out: percentage phytotoxicity SORVU
Experimental: as §2, §3, §4, §5

[8] = test system: Digitaria sanguinalis (DIGSA); assay: Test 1B glasshouse assay for herbicidal activity, post-emergence; settings: 360 h; for pest or weed control at 30 g/ha: 30 g/ha application rate; for pest or weed control at 125 g/ha: 125 g/ha application rate
Summary of the method: (§6)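 Percentage phytotoxicity (100% = total damage, 0% = none) was scored visually 15 days (post-emergence) or 20 days (pre-emergence) after spraying. Plants had been sprayed 1 day or about 12 days after sowing with compound formulated as IF50 and diluted in 0.2% v/v X-77, then grown at 24/18° C. day/night.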

Setaria faberi (SETFA) [9] = assay: as above; settings: 360 h; for pest or weed control at 30 g/ha: 30 g/ha application rate; for pest or weed control at 125 g/ha: 125 g/ha application rate
Summary of the method: as §6

[10] = test system: SORVU (Sorghum bicolor (L.) Moench ssp. Bicolor, or Sorghum vulgare Pers.); assay: as above; settings: 360 h; for pest or weed control at 30 g/ha: 30 g/ha application rate; for pest or weed control at 125 g/ha: 125 g/ha application rate
Summary of the method: as §6

[11] = test system: Beta vulgaris (BEAVA, sugar beet); assay: Test 1B glasshouse assay for herbicidal activity, pre-emergence; settings: 480 h, 250 g/ha, 20 DAA, read-out: percentage phytotoxicity BEAVA
Experimental: as §2, §3, §4
(§7) Cool climate crop plants: Triticum aestivum (TRZAW, winter wheat), Brassica napus (BRSNN, rape, also called oilseed rape or rapeseed), Beta vulgaris (BEAVA, sugar beet).

[12] = test system: Triticum aestivum (TRZAW, winter wheat); assay: as above; settings: 480 h, 250 g/ha, 20 DAA, read-out: percentage phytotoxicity TRZAW
Experimental: as §2, §3, §4, §7

[13] = test system: Brassica napus (BRSNN, rape); assay: as above; settings: 480 h, 250 g/ha, 20 DAA, read-out: percentage phytotoxicity BRSNN
Experimental: as §2, §3, §4, §7

[14] = test system: Glycine max (GLXMA, soybean); assay: Test 1B glasshouse assay for herbicidal activity, post-emergence; settings: 360 h; for plant injury at 30 g/ha: 30 g/ha application rate; for plant injury at 125 g/ha: 125 g/ha application rate
Summary of the method: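 Soybean sprayed 1 day after sowing (pre-emergence) or at about 12 days (post-emergence) with aqueous active ingredient plus 0.2% v/v X-77 adjuvant. Plants grown at 24/18 °C day/night, 16 h light, 65% humidity. Visual % phytotoxicity (100% = total damage) scored at 20 DAA pre-emergence, 15 DAA post-emergence.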

Setaria faberi (SETFA) [15] = assay: Test 1A glasshouse assay for herbicidal activity, pre-emergence; settings: 312 h, evaluated after 13 days, read-out: percentage phytotoxicity SETFA
Summary of the method: as §1

[16] = test system: Alopecurus myosuroides (ALOMY); assay: as above; settings: 312 h, evaluated after 13 days, read-out: percentage phytotoxicity ALOMY
Summary of the method: as §1

[17] = test system: Echinochloa crus-galli (ECHCG); assay: as above; settings: 312 h, evaluated after 13 days, read-out: percentage phytotoxicity ECHCG
Summary of the method: as §1

[18] = test system: Amaranthus retroflexus (AMARE); assay: as above; settings: 312 h, evaluated after 13 days, read-out: percentage phytotoxicity AMARE
Summary of the method: as §1

| SMILES | pest or weed control at 250 g/ha (Setaria faberi (SETFA) [1]) [%] | pest or weed control at 250 g/ha [2] [%] | pest or weed control at 250 g/ha [3] [%] | pest or weed control at 250 g/ha [4] [%] | pest or weed control at 250 g/ha (Setaria faberi (SETFA) [5]) [%] | pest or weed control at 250 g/ha [6] [%] | pest or weed control at 250 g/ha [7] [%] | pest or weed control at 30 g/ha [8] [%] | pest or weed control at 125 g/ha [8] [%] | pest or weed control at 30 g/ha (Setaria faberi (SETFA) [9]) [%] | pest or weed control at 125 g/ha (Setaria faberi (SETFA) [9]) [%] | pest or weed control at 125 g/ha [10] [%] | plant injury at 250 g/ha [11] [%] | plant injury at 250 g/ha [12] [%] | plant injury at 250 g/ha [13] [%] | plant injury at 125 g/ha [14] [%] | pest or weed control at 250 g/ha (Setaria faberi (SETFA) [15]) [%] | pest or weed control at 250 g/ha [16] [%] | pest or weed control at 250 g/ha [17] [%] | pest or weed control at 250 g/ha [18] [%] | other results |
| --- | --- | --- | --- | --- | --- | --- | --- | --- | --- | --- | --- | --- | --- | --- | --- | --- | --- | --- | --- | --- | --- |
| CC#Cc1cc(Cl)c(C2C(=O)C3CCC(C3)C2=O)c(OC)c1 (stereo not drawn) [Compound A-12] | 100 | 90 to 100 | 100 | 0 to 10 | 100 | 100 | 90 | 100 | 100 | 70 | 80 | 100 | 10 | 30 | 20 | 10 | 100 | 100 | 100 | 0 | pest or weed control at 62.5 g/ha (Setaria faberi (SETFA) [1]; 62.5 g/ha): 100%; pest or weed control at 62.5 g/ha ([2]; 62.5 g/ha): 80%; pest or weed control at 62.5 g/ha ([3]; 62.5 g/ha): 100%; pest or weed control at 62.5 g/ha ([4]; 62.5 g/ha): 0%; pest or weed control at 30 g/ha [10]: 80%; plant injury at 30 g/ha [14]: 0%; pest or weed control at 62.5 g/ha (Setaria faberi (SETFA) [15]; 62.5 g/ha): 100%; pest or weed control at 62.5 g/ha ([16]; 62.5 g/ha): 90%; pest or weed control at 62.5 g/ha ([17]; 62.5 g/ha): 90%; pest or weed control at 62.5 g/ha ([18]; 62.5 g/ha): 0% |
| CC#Cc1cc(C)c(C2C(=O)CC(c3ccccn3)CC2=O)c(C)c1 (stereo not drawn) [Compound A-13] | 100 | 100 | 100 | 60 | 80 | 90 | 80 |  | 80 |  | 80 | 80 | 10 | 20 | 70 | 60 | 100 | 100 | 100 | 80 | pest or weed control at 30 g/ha (Setaria faberi (SETFA) [1]; 30 g/ha): 90%; pest or weed control at 30 g/ha ([2]; 30 g/ha): 70%; pest or weed control at 30 g/ha ([3]; 30 g/ha): 80%; pest or weed control at 30 g/ha ([4]; 30 g/ha): 30%; pest or weed control at 30 g/ha (Setaria faberi (SETFA) [15]; 30 g/ha): 70%; pest or weed control at 30 g/ha ([16]; 30 g/ha): 70%; pest or weed control at 30 g/ha ([17]; 30 g/ha): 100%; pest or weed control at 30 g/ha ([18]; 30 g/ha): 100% |
| CC#Cc1cc(C)c(C2=C(OC(=O)OC)CC(c3ccccn3)CC2=O)c(C)c1 (stereo not drawn) [Compound A-14] | 100 | 100 | 100 | 20 | 90 | 80 | 80 | 80 | 100 | 80 | 90 | 100 | 30 | 40 | 60 | 70 | 100 | 100 | 100 | 70 | pest or weed control at 30 g/ha [10]: 80%; plant injury at 30 g/ha [14]: 40% |
